Consider 3 molecules from patent publication US10570149B2, “Tricyclic heterocylic derivatives” (MERCK PATENT GMBH, priority 2016, dated 2020).

Some results are limits rather than exact numbers.

The target in data set [1] is T1, Kv11.1 (hERG) ion channel (Homo sapiens, UniProt Q12809).
T1 construct: expressed in transfected cells; host or cells: HEK293
The experiment in a line: Kv11.1 (hERG) ion channel activity, whole cell patch clamp. The following applies: for Ki: Table 3, HEK293 hERG patch clamp. The data set is classed as cell-based. As to the method:
Kv11.1 (hERG) Ion Channel Activity
In this assay, a potential in vitro effect of test compounds on the Kv11.1 (hERG) ion channel current is investigated which mediates the rapidly activating, delayed rectifier cardiac potassium current (IKr). The assay is performed with a stable Kv11.1 (hERG) transfected human embryonic kidney cell line (HEK293) by whole cell patch clamp technique carried out at room temperature.
The Kv11.1 (hERG) ion channel blocker quinidine is used as reference compound. The effects of the test compounds and quinidine are normalized to the corresponding vehicle control. The whole cell recordings are carried out with an automated patch clamp device Patchliner™, Nanion Technologies, Munich). Hereby the Patch Clamp measurements run on silicate-coated chips with a hole of a defined diameter. Solutions, cell suspension and compounds are applied by a Teflon-laminated pipette needle through microfluidic silicate-laminated channels. Commercial patch clamp amplifiers (EPC10, HEKA Elektronik Dr. Schulze GmbH, Germany) are used for the patch clamp recordings. HEK293 cells stably expressing the hERG gene are held at −80 mV. Steady-state inhibition of Kv11.1 (hERG) potassium current due to test/reference compound application is measured using a pulse pattern with fixed amplitudes: 51 ms/−80 mV, 500 ms/+40 mV, 500 ms/−40 mV, 200 ms/−80 mV. The hERG-specific voltage protocol is repeated at 10 s intervals. The leak current is subtracted by a P4 leak subtraction. Cells are resuspended in extracellular patch clamp solution (EC) and applied into the chip. After trapping the cell, the EC is exchanged by seal enhancer solution (SE) to improve the sealing procedure. When the whole cell configuration is attained, seal enhancer is washed out by the application of EC. The recording is started in EC for 1.5 min. Afterwards DMSO (vehicle control, 0.1% DMSO) is applied and the control current is measured for 3 min. Following control steady-state current, test compound is applied twice at the same concentration and the tail current is measured for 3.5 min each. For the determination of a concentration-relationship, the test compound is applied as a cumulative concentration-response curve and each concentration is measured for 5 min. The reference compound quinidine is treated in the same way. The effect on Kv11.1 (hERG) ion channel activity is judged from the tail current amplitude monitored at −40 mV (current of interest, COI). Results are calculated from the last recorded current traces. Changes in Kv11.1 (hERG) ion channel activity between control value, defined as 100% Kv11.1 (hERG) ion channel activity, application of test compound and application of quinidine is reported as percent change of control value of COI. An aliquot of test compound is collected for concentration verification during the recording. The sample is immediately measured by HPLC and the final compound concentration within the assay is calculated according to a calibration curve.

Data set [2] concerns phosphorylation of H2AX (gH2AX) in U2OS-TopBP1-ER cells. Put plainly: gH2AX-TopBP1ER cellular assay. The data set is classed as cell-based. Conditions: Table 1, class symbols, 4-OHT. The text has this: gH2AX-TopBP1ER Cellular Assay
ATR activity is restricted to replicating cells and many of its targets can also be phosphorylated by other PIKKs. These restrictions have limited the development of selective cellular assays in the past. In order to overcome these limitations, a previously developed genetically engineered cellular system in which ATR, and only ATR, can be activated at will in every cell (Toledo et al Genes Dev. 22, 297-302 2008) was used. In this system, the addition of 4-hydroxytamoxifen (4-OHT), promotes the nuclear translocation of a fragment of TopBP1 which then activates ATR. The phosphorylation of H2AX that follows 4-OHT addition in these cells is a direct and selective readout of ATR activity, which is not influenced by the rest of PIKKs. This property has been used in a screen for compounds with ATR inhibitory capacity. U2OS-TopBP1-ER cells stably express the TopBP1 activation domain (aa 978-1286) fused to a mutated estrogen receptor ligand binding domain. Nuclear accumulation of the TopBP1-ER-LBD fusion protein is induced by the synthetic ER antagonist 4-hydroxytamoxifen (4-OHT) (and not by natural ER agonists) mediating specific ATR activation that is independent of DNA damage or cell cycle. In the assay phosphorylation of the ATR substrate H2AX (“gH2AX”) at Serin 139 is detected using an immune-cytochemical procedure and high content imaging. For the assay U2OS-TopBP1-ER cells are plated in culture medium (DMEM high Glucose (no phenol red), 2 mM Glutamax, 1 mM Pyruvate, 10% FCS into Greiner 384 well plates, black, μclear #781090 (4000 cells/well/30 μl) and incubated for at least 20 hours at 37° C., 10% CO2 and 90% rH. Diluted test compounds (1 nM-30 μM final) and 4-OHT (1 μM final) are added simultaneously and cells are incubated for 2 h at 37° C. After fixation with 4% formaldehyde and permeabilisation with 0.2% Triton X-100 a complete immunocytochemical procedure is performed using a specific anti-gH2AX-antibody (Millipore 05-636, clone JBW301) and fluorescently labelled secondary antibody (Alexa Fluor® 488 goat anti-mouse F(ab′)2 fragment, Invitrogen A11017) and parallel nuclear staining for cell counting. The nuclear localised gH2AX signal is detected on an ImageXpress Ultra confocal high content reader and reported as % positive cells (nuclei).

T1 sequence (Q12809 whole entry): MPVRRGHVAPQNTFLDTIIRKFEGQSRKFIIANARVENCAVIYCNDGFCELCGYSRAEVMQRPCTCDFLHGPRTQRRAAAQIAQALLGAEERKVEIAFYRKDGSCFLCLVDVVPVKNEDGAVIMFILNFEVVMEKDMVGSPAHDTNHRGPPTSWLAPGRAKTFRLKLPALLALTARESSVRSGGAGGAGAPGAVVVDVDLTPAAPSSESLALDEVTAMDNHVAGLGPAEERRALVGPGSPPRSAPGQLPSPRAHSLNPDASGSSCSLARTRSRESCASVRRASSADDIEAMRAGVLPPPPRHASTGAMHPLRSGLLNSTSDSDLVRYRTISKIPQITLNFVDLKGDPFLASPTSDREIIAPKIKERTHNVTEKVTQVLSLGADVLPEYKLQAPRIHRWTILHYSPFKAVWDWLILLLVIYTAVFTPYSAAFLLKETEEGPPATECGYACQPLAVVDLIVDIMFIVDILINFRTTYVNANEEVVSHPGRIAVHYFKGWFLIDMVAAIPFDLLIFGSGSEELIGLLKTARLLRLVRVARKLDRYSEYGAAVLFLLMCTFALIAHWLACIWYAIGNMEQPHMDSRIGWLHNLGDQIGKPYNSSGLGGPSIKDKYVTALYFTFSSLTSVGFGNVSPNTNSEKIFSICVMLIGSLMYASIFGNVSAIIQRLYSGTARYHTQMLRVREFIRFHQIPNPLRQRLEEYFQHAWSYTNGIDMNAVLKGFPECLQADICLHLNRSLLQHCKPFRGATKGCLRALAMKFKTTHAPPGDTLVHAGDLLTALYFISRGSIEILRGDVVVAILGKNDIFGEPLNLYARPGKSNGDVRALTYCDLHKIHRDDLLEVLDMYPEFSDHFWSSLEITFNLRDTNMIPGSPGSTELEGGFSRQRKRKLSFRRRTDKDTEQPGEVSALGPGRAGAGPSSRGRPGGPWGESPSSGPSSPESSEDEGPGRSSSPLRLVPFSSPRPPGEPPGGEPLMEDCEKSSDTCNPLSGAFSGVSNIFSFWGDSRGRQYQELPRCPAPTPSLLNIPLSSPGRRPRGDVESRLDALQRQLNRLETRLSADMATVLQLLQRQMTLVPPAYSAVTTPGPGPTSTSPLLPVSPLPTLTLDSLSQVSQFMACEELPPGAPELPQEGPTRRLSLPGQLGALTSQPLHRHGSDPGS

Turning to `CNc1cnc2[nH]ccc2c1-c1nc2c(c(C(C)(C)S(C)(=O)=O)n1)OC[C@@H]1COC[C@@H](C)N21` [A1, {4-[(S)-1-(1-Methanesulfonyl-1-methyl-ethyl)-5-(R)-methyl-5,6,8a,9-tetrahydro-8H-7,10-dioxa-2,4,4b-triaza-phenanthren-3-yl]-1H-pyrrolo[2,3-b]pyridin-5-yl}-methyl-amine], the “hERG % effect @ conc” value in data set [1] (@ 30 μM) is recorded as “(−50% @ 30 μM)”. In addition, the inhibitory constant (Ki) (as a rule, the dissociation constant of the complex between target and ligand, obtained from inhibition or displacement) in data set [1] was more than 30000 nM. Besides, the concentration for half-maximal inhibition (IC50) (commonly the concentration at which inhibition is half-maximal) in data set [2] was in the range of 10 to 100 nM.
As to `C[C@@H]1COC[C@H]2COc3c(nc(-c4ccnc5[nH]ccc45)nc3C(C)(C)S(C)(=O)=O)N21` [A13, (6R,8aS)-1-(1-Methanesulfonyl-1-methyl-ethyl)-5-methyl-3-(1H-pyrrolo[2,3-b]pyridin-4-yl)-5,6,8a,9-tetrahydro-8H-7,10-dioxa-2,4,4b-triaza-phenanthrene], in data set [1] (@ 10 μM), the “hERG % effect @ conc” value was “(−55% effect @ 10 μM)”. In addition, affinity in data set [1] was put at a Ki of 6500 nM. This molecule came in with a 50% inhibitory concentration (IC50) in data set [2] of 10 to 100 nM.
For `C[C@@H]1COC[C@H]2COc3c(nc(-c4c(N)cnc5[nH]ccc45)nc3C(C)(C)S(C)(=O)=O)N21` [A20, 4-[(4bR,8S)-1-(1-Methanesulfonyl-1-methyl-ethyl)-5-methyl-5,6,8a,9-tetrahydro-8H-7,10-dioxa-2,4,4b-triaza-phenanthren-3-yl]-1H-pyrrolo[2,3-b]pyridin-5-ylamine], in that order: “(−19% effect @ 10 μM)”, more than 10000 nM and 10 to 100 nM.
